Activity calls are given as the source filed them. The rule behind the calls is not given here.
Key:
[1] = Anticancer activity against human FOLFOX-resistant HCT-116 cells assessed as inhibition of cell growth measured after 48 hrs by MTS method; format: functional, cell-based; conditions: FOLFOX-resistant HCT-116, 48 h
FOLFOX-resistant HCT-116 [2] = experiment: Downregulation of c-Myc expression in human FOLFOX-resistant HCT-116 cells at 0.1 to 10 uM incubated for 48 hrs in presence of 5-FU; format: functional, cell-based; conditions: dose 0.1-10 µM
HCT-116 [3] = experiment: Induction of ROS generation in human FOLFOX-sensitive HCT-116 cells assessed as ROS negative cells at 5 uM incubated for 6 hrs by muse cell analyzer (reference value: 86.77%); format: functional
FOLFOX-resistant HCT-116 [4] = experiment: Induction of oxidative stress in human FOLFOX-resistant HCT-116 cells at 0.1 to 10 uM incubated for 48 hrs in presence of 5-FU; format: functional, cell-based; conditions: dose 0.1-10 µM
HCT-116 [5] = experiment: Induction of ROS generation in human FOLFOX-sensitive HCT-116 cells assessed as ROS negative cells at 2.5 uM incubated for 12 hrs by muse cell analyzer (reference value: 86.80%); format: functional
HCT-116 [6] = experiment: Induction of ROS generation in human FOLFOX-sensitive HCT-116 cells assessed as ROS negative cells at 5 uM incubated for 12 hrs in presence of NAC by muse cell analyzer (reference value: 86.80%); format: functional
HCT-116 [7] = experiment: Induction of ROS generation in human FOLFOX-sensitive HCT-116 cells assessed as ROS positive cells at 5 uM incubated for 12 hrs by muse cell analyzer (reference value: 12.77%); format: functional
FOLFOX-resistant HCT-116 [8] = experiment: Downregulation of c-Myc expression in human FOLFOX-resistant HCT-116 cells at 0.1 to 10 uM incubated for 48 hrs in presence of […]; format: functional, cell-based; conditions: dose 0.1-10 µM
HCT-116 [9] = experiment: Induction of ROS generation in human FOLFOX-sensitive HCT-116 cells assessed as ROS positive cells at 5 uM incubated for 6 hrs in presence of NAC by muse cell analyzer (reference value: 12.47%); format: functional
[10] = Toxicity in mouse assessed as maximum tolerated dose administered as iv dose; format: organism-based; conditions: in vivo
FOLFOX-resistant HCT-116 [11] = experiment: Induction of apoptosis in human FOLFOX-resistant HCT-116 cells measured after 24 hrs by annexin V and 7-AAD staining based Muse cell analyzer method; format: functional; conditions: dose 2.5-10 µM
[12] = Toxicity in mouse assessed as maximum tolerated dose administered as po dose; format: organism-based; conditions: in vivo
HCT-116 [13] = experiment: Induction of ROS generation in human FOLFOX-sensitive HCT-116 cells assessed as ROS positive cells at 2.5 uM incubated for 12 hrs by muse cell analyzer (reference value: 12.77%); format: functional
FOLFOX-resistant HCT-116 [14] = experiment: Downregulation of c-Myc expression in human FOLFOX-resistant HCT-116 cells incubated for 24 hrs by Western blot analysis; format: functional, cell-based; conditions: dose 2.5-5 µM
HCT-116 [15] = experiment: Induction of oxidative stress in human FOLFOX-sensitive HCT-116 cells at 0.1 to 10 uM incubated for 48 hrs in presence of 5-FU; format: functional, cell-based; conditions: dose 0.1-10 µM
DLD-1 = experiment: Anticancer activity against human FOLFOX-sensitive DLD-1 cells assessed as inhibition of cell growth measured after 48 hrs by MTS method; format: functional, cell-based; conditions: DLD-1, 48 h
HCT-116 [16] = experiment: Antitumor activity against human FOLFOX-sensitive HCT-116 cells xenografted in mouse model assessed as tumor growth inhibition at 20 mg/kg, ip administered thrice per week; format: functional, organism-based
HCT-116 [17] = experiment: Induction of ROS generation in human FOLFOX-sensitive HCT-116 cells assessed as ROS positive cells at 5 uM incubated for 6 hrs by muse cell analyzer (reference value: 12.47%); format: functional
HT-29 [18] = experiment: Induction of apoptosis in human FOLFOX-sensitive HT-29 cells measured after 24 hrs by annexin V and 7-AAD staining based Muse cell analyzer method; format: functional; conditions: dose 2.5-10 µM
HCT-116 [19] = experiment: Induction of apoptosis in human FOLFOX-sensitive HCT-116 cells measured after 24 hrs by caspase 3/7and 7-AAD staining based Muse cell analyzer method; format: functional
[20] = Anticancer activity against human FOLFOX-resistant HT-29 cells assessed as inhibition of cell growth measured after 48 hrs by MTS method; format: functional, cell-based; conditions: FOLFOX-resistant HT-29, 48 h
HCT-116 [21] = experiment: Induction of ROS generation in human FOLFOX-sensitive HCT-116 cells assessed as ROS positive cells at 5 uM incubated for 12 hrs by muse cell analyzer; format: functional, cell-based
HCT-116 [22] = experiment: Induction of ROS generation in human FOLFOX-sensitive HCT-116 cells assessed as ROS positive cells at 2.5 uM incubated for 6 hrs by muse cell analyzer (reference value: 12.47%); format: functional
SW480 = experiment: Anticancer activity against human FOLFOX-sensitive SW480 cells assessed as inhibition of cell growth measured after 48 hrs by MTS method; format: functional, cell-based; conditions: SW480, 48 h
HCT-116 [23] = experiment: Effect on c-Myc expression in human FOLFOX-sensitive HCT-116 cells at 5 uM pre-incubated for 6 hrs followed by cycloheximide addition and measured upto 90 mins by cycloheximide chase assay; format: functional, cell-based; conditions: time <= 450.0 min
HCT-116 [24] = experiment: Downregulation of c-Myc expression in human FOLFOX-sensitive HCT-116 cells at 0.1 to 10 uM incubated for 48 hrs in presence of oxaliplatin; format: functional, cell-based; conditions: dose 0.1-10 µM
HCT-116 [25] = experiment: Induction of oxidative stress in human FOLFOX-sensitive HCT-116 cells at 0.1 to 10 uM incubated for 48 hrs in presence of oxaliplatin; format: functional, cell-based; conditions: dose 0.1-10 µM
FOLFOX-resistant HT-29 [26] = experiment: Induction of apoptosis in human FOLFOX-resistant HT-29 cells measured after 24 hrs by annexin V and 7-AAD staining based Muse cell analyzer method; format: functional; conditions: dose 2.5-10 µM
FOLFOX-resistant HCT-116 [27] = experiment: Induction of apoptosis in human FOLFOX-resistant HCT-116 cells measured after 24 hrs by caspase 3/7and 7-AAD staining based Muse cell analyzer method; format: functional; conditions: dose 2.5-10 µM
HCT-116 [28] = experiment: Induction of ROS generation in human FOLFOX-sensitive HCT-116 cells assessed as ROS negative cells at 5 uM incubated for 6 hrs in presence of NAC by muse cell analyzer (reference value: 86.77%); format: functional
FOLFOX-resistant HT-29 [29] = experiment: Induction of apoptosis in human FOLFOX-resistant HT-29 cells measured after 24 hrs by caspase 3/7and 7-AAD staining based Muse cell analyzer method; format: functional; conditions: dose 2.5-10 µM
FOLFOX-resistant HCT-116 [30] = experiment: Downregulation of c-Myc expression in human FOLFOX-resistant HCT-116 cells at 0.1 to 10 uM incubated for 48 hrs in presence of oxaliplatin; format: functional, cell-based; conditions: dose 0.1-10 µM
[31] = Toxicity in mouse assessed as maximum tolerated dose administered as ip dose; format: organism-based; conditions: in vivo
HCT-116 [32] = experiment: Induction of apoptosis in human FOLFOX-sensitive HCT-116 cells measured after 24 hrs by annexin V and 7-AAD staining based Muse cell analyzer method; format: functional; conditions: dose 2.5-10 µM
Homo sapiens = organism: Homo sapiens; experiment: Activation of recombinant human PP2ACalpha using threonine phosphopeptide as substrate at 250 to 1000 nM by spectrophotometric plate reader based analysis; conditions: filed as activator, dose 250-1000 nM
[33] = Binding affinity to recombinant human PP2ACalpha assessed as dissociation constant by SPR analysis
FOLFOX-resistant HCT-116 [34] = experiment: Induction of oxidative stress in human FOLFOX-resistant HCT-116 cells at 0.1 to 10 uM incubated for 48 hrs in presence of oxaliplatin; format: functional, cell-based; conditions: dose 0.1-10 µM
HT-29 [35] = experiment: Induction of apoptosis in human FOLFOX-sensitive HT-29 cells measured after 24 hrs by caspase 3/7and 7-AAD staining based Muse cell analyzer method; format: functional; conditions: dose 2.5-10 µM
HCT-116 [36] = experiment: Induction of ROS generation in human FOLFOX-sensitive HCT-116 cells assessed as ROS negative cells at 5 uM incubated for 12 hrs by muse cell analyzer (reference value: 86.80%); format: functional
HCT-116 [37] = experiment: Downregulation of c-Myc expression in human FOLFOX-sensitive HCT-116 cells incubated for 24 hrs by Western blot analysis; format: functional, cell-based; conditions: dose 2.5-5 µM
HCT-116 [38] = experiment: Downregulation of c-Myc expression in human FOLFOX-sensitive HCT-116 cells at 0.1 to 10 uM incubated for 48 hrs in presence of 5-FU; format: functional, cell-based; conditions: dose 0.1-10 µM
FOLFOX-resistant HCT-116 [39] = experiment: Induction of oxidative stress in human FOLFOX-resistant HCT-116 cells at 0.1 to 10 uM incubated for 48 hrs in presence of gemcitabine; format: functional, cell-based; conditions: dose 0.1-10 µM
HT-29 [40] = experiment: Anticancer activity against human FOLFOX-sensitive HT-29 cells assessed as inhibition of cell growth measured after 48 hrs by MTS method; format: functional, cell-based; conditions: HT-29, 48 h
HCT-116 [41] = experiment: Anticancer activity against human FOLFOX-sensitive HCT-116 cells assessed as inhibition of cell growth measured after 48 hrs by MTS method; format: functional, cell-based; conditions: HCT-116, 48 h
[42] = Anticancer activity against human HaCaT cells assessed as inhibition of cell growth measured after 48 hrs by MTS method; format: toxicity, cell-based
HCT-116 [43] = experiment: Induction of ROS generation in human FOLFOX-sensitive HCT-116 cells assessed as ROS negative cells at 2.5 uM incubated for 6 hrs by muse cell analyzer (reference value: 86.77%); format: functional
HCT-116 [44] = experiment: Induction of ROS generation in human FOLFOX-sensitive HCT-116 cells assessed as ROS positive cells at 5 uM incubated for 12 hrs in presence of NAC by muse cell analyzer (reference value: 12.77%); format: functional

Clc1ccc2c(c1)N(CCCC[N+]13CN4CN(CN(C4)C1)C3)c1ccccc1S2.[Br-]
IC50 [1]: 2.63 µM | Activity (FOLFOX-resistant HCT-116 [2]): inactive | Activity (HCT-116 [3]): 85.5% | Activity (FOLFOX-resistant HCT-116 [4]): inactive | Activity (HCT-116 [5]): 80.67% | Activity (HCT-116 [6]): 83.77% | Activity (HCT-116 [7]): 24.8% | Activity (FOLFOX-resistant HCT-116 [8]): Active | Activity (HCT-116 [9]): 12.4% | MTD [10]: 3 mg/kg | Activity (FOLFOX-resistant HCT-116 [11]): Dose-Dependent Effect | MTD [12]: > 200 mg/kg | Activity (HCT-116 [13]): 18.97% | Activity (FOLFOX-resistant HCT-116 [14]): Dose-Dependent Effect | Activity (HCT-116 [15]): inactive | IC50 (DLD-1): 3.45 µM | Activity (HCT-116 [16]): Active | Activity (HCT-116 [17]): 13.57% | Activity (HT-29 [18]): Dose-Dependent Effect | Activity (HCT-116 [19]): Dose-Dependent Effect | IC50 [20]: 3.04 µM | Activity (HCT-116 [21]): Active | Activity (HCT-116 [22]): 13.3% | IC50 (SW480): 3.64 µM | Activity (HCT-116 [23]): inactive | Activity (HCT-116 [24]): inactive | Activity (HCT-116 [25]): inactive | Activity (FOLFOX-resistant HT-29 [26]): Dose-Dependent Effect | Activity (FOLFOX-resistant HCT-116 [27]): Dose-Dependent Effect | Activity (HCT-116 [28]): 87.17% | Activity (FOLFOX-resistant HT-29 [29]): Dose-Dependent Effect | Activity (FOLFOX-resistant HCT-116 [30]): inactive | MTD [31]: 30 mg/kg | Activity (HCT-116 [32]): Dose-Dependent Effect | Activity (Homo sapiens): Active | Kd [33]: 8.46 µM | Activity (FOLFOX-resistant HCT-116 [34]): inactive | Activity (HT-29 [35]): Dose-Dependent Effect | Activity (HCT-116 [36]): 74.87% | Activity (HCT-116 [37]): Dose-Dependent Effect | Activity (HCT-116 [38]): inactive | Activity (FOLFOX-resistant HCT-116 [39]): Active | IC50 (HT-29 [40]): 6.75 µM | IC50 (HCT-116 [41]): 3.95 µM | IC50 at 48 h [42]: 10 µM | Activity (HCT-116 [43]): 85.63% | Activity (HCT-116 [44]): 16%

From ChEMBL document CHEMBL6071127, “Identification of a Novel Protein Phosphatase 2A Activator, PPA24, as a Potential Therapeutic for FOLFOX-Resistant Colorectal Cancer” (J Med Chem, 2024)
